Results taken from US10350255B2, “Polygonum cuspidatum extracts” (priority 2015, dated 2019).
Read-outs that look alike come from different tables or passages of the source.

Legend:
microorganisms = assay: Photodynamic inactivation by isolated fractions and commercial anthraquinones; format: cell-based; conditions: for Order of photodynamic inactivation of microorganisms: commercial samples of anthraquinones; for Photodynamic effect of components isolated by fractionation: isolated by fractionation of the extract
Text: The anthraquinones, or their glycosylated derivatives, could be responsible for the photosensitizing effect of the extract. […] Commercial samples of anthraquinones produced photodynamic inactivation of microorganisms in the order emodin>physcion>rhein. In some P. cuspidatum extracts, the proportions of emodin and physcion are between 0.51-0.65% and 0.24-0.27% by weight, respectively.

S. aureus = assay: Agar diffusion test (TSA, bored hole / paper disk), dark vs light; format: cell-based, Staphylococcus aureus; conditions: for zone of inhibition at 5000 µg/mL: Staphylococcus aureus, chlorhexidine control 5 mg/mL
S. mutans = assay: as above; format: cell-based, Streptococcus mutans; conditions: for zone of inhibition at 5000 µg/mL: chlorhexidine control 5 mg/mL
[1] = light-activated, extract 40 μg, components at their proportions found in the extract, listed as Emodin 0.001%
[2] = light-activated, extract 40 μg, components at their proportions found in the extract
[3] = comparative test, samples at strength as labelled, dark
[4] = comparative test, samples at strength as labelled, light 36 J cm^-2

Cc1cc(O)c2c(c1)C(=O)c1cc(O)cc(O)c1C2=O [Emodin]
Order of photodynamic inactivation of microorganisms (microorganisms): emodin>physcion>rhein | Photodynamic effect of components isolated by fractionation (microorganisms): greatest photodynamic effect | Inhibition zone, S. aureus, Light (S. aureus; [1]): 8.5 mm | zone of inhibition at 40 µg/disc (S. mutans; Streptococcus mutans, light or radiation study, higher concentrations: 20 μL of 2 mg mL^-1 = 40 μg, light 36 J cm^-2 (FIG. 14), read-out: Inhibition zone (photoactivity)): 10 mm | Inhibition zone, S. mutans, Light (S. mutans; [2]): 7 mm | Inhibition zone, S. mutans, Light (S. mutans; [1]): 7.0 mm

COc1cc(O)c2c(c1)C(=O)c1cc(C)cc(O)c1C2=O [Physcion]
Order of photodynamic inactivation of microorganisms (microorganisms): emodin>physcion>rhein | Inhibition zone, S. aureus, Light (S. aureus; light-activated, extract 40 μg, components at their proportions found in the extract, listed as Physcion 0.001%): 8.5 mm | Inhibition zone, S. mutans, Light (S. mutans; [2]): inactive

Cc1cc2nc3ccc(N(C)C)cc3[s+]c2cc1N.[Cl-] [TB 1%, Toluidine Blue 0]
Inhibition zone, S. aureus, Dark (S. aureus; [3]): 15 mm | Inhibition zone, S. aureus, Light (S. aureus; [4]): 16 mm | Inhibition zone, S. mutans, Dark (S. mutans; [3]): 15 mm | Inhibition zone, S. mutans, Light (S. mutans; [4]): 15 mm

COc1cc(O[C@@H]2O[C@H](CO)[C@@H](O)[C@H](O)[C@H]2O)c2c(c1)C(=O)c1cc(C)cc(O)c1C2=O [anthraquinones A]
Photodynamic effect of components isolated by fractionation (microorganisms): inactive

Cc1cc(O)c2c(c1)C(=O)c1cc(O)cc(O[C@@H]3O[C@H](CO)[C@@H](O)[C@H](O)[C@H]3O)c1C2=O [anthraquinones B, Anthraglycoside B]
Photodynamic effect of components isolated by fractionation (microorganisms): inactive

[H]/N=C(\N/C(=N/[H])NCCCCCCNC(=N)NC(=N)Nc1ccc(Cl)cc1)Nc1ccc(Cl)cc1 [chlorhexidine, Chlorhexidine Digluconate]
zone of inhibition at 5000 µg/mL (S. aureus; dark, read-out: Inhibition zone, S. aureus, dark (reference)): 18 mm | zone of inhibition at 5000 µg/mL (S. aureus; light 35 J cm^-2, read-out: Inhibition zone, S. aureus, light (reference)): 18 mm | zone of inhibition at 5000 µg/mL (S. mutans; Streptococcus mutans, dark, read-out: Inhibition zone, S. mutans, dark (reference)): 18 mm | zone of inhibition at 5000 µg/mL (S. mutans; Streptococcus mutans, light 35 J cm^-2, read-out: Inhibition zone, S. mutans, light (reference)): 18 mm

Oc1ccc(C=Cc2cc(O)cc(O)c2)cc1 [resveratrol, Resveratrol]
Antimicrobial activity in the dark (S. mutans; agar diffusion, dark (FIG. 14)): inactive | Antimicrobial activity with light activation (S. mutans; agar diffusion, light 36 J cm^-2 (FIG. 14)): inactive
